Source: publication PMC3857224, “Inhibition of DNA Glycosylases via Small Molecule Purine Analogs” (PLoS ONE, 2013)

Columns and labels:
[1] = target: T1, T4 pyrimidine dimer DNA glycosylase (T4-pdg) (Enterobacteria phage T4, UniProt P04418); assay: UV-irradiated plasmid nicking assay; format: biochemical; details: 40 µM inhibitor, 15 min; read-out: inhibition of T4-pdg activity (reduction in nicks per plasmid)
T1 construct: made in house
Method: T4-pdg activity was assayed by a plasmid nicking assay with minor modifications of a previously described method, [27]. Supercoiled pBR322 plasmid was irradiated with 254 nm ultraviolet (UV) light (100 µW/cm^2) for 98 sec to produce approximately 10 thymine dimers per plasmid molecule. Irradiated plasmid (10 nM) was then incubated in the presence or absence of inhibitors with 130 pM active T4-pdg, as assessed by […] trapping. Reactions were started by addition of DNA, incubated for 15 min at 37°C in reaction buffer (10 mM Tris pH 8.0, 1 mM EDTA, 125 mM NaCl, 100 µg/ml BSA), and stopped by the addition of SDS to a final concentration of 1%. Plasmid DNAs (form I, II and III corresponding to supercoiled, nicked circular and linear, respectively) were resolved on a 0.9% agarose gel and visualized with 0.5 µg/ml ethidium bromide. Gel images were captured on a ChemiImager 5500 (Alpha Innotech, Santa Clara, CA) gel documentation system and densitometry was performed using Image J software. Percent remaining form I DNA was calculated by applying a factor of 1.42 to the form I band intensity and then dividing form I by the sum of form I, II and III. The number of nicks per molecule were estimated based on a Poisson distribution, in which nicks per molecule = -ln (mass fraction of form I DNA remaining), and inhibition of activity was measured as the percentage reduction in the number of nicks per plasmid molecule compared to reactions without inhibitor.
In humans, several glycosylases, including OGG1, NTH1, NEIL2, and NEIL3 may participate in the removal of a wide variety of oxidized bases. […] To address this question, assays were designed to measure inhibition of OGG1 and NTH1, as well as the Escherichia coli glycosylase-AP lyase, FPG. In order to compare the relative efficiencies of inhibition between NEIL1 and these other glycosylase/AP lyases, it was necessary to identify common DNA substrates and pair-wise analyze inhibition data. To compare inhibition of NEIL1 versus NTH1, oligodeoxynucleotides were synthesized that contained a site-specific thymine glycol (TG) adduct, while comparative inhibition data for OGG1 and FPG were collected using an oligodeoxynucleotide containing a site-specific 8-oxo-Gua. In control reactions (no inhibitor added), each enzyme generated the expected incised products, confirming the validity of the assay. […] Additionally, experiments were designed to test whether compounds P2, P6, P7, and P8 could inhibit a pyrimidine dimer-specific glycosylase/AP lyase, T4 pyrimidine dimer DNA glycosylase (T4-pdg) that also has an associated AP lyase activity, using an UV-irradiated plasmid nicking assay. […]

wild-type MEFs = assay: cell survival assay (CellTiter Glo), wild-type MEFs; format: cell-based, mouse; details: WT MEFs, 72 h exposure
Method: Wild-type or Neil1-KO MEFs were plated in a 96-well opaque walled dish (2000 cells/well) and incubated for 18 h to allow for attachment. Inhibitor (80 µL) diluted in DMEM was added to the cells at various concentrations ranging from 0–20 µM, and incubated for an additional 72 h. Cell viability was measured using the CellTiter Glo reagent (Promega, Madison, WI) and was prepared as per the manufacturer's instructions, with 50 µL of the reconstituted reagent added to each well. Cells were incubated for 10 min on an orbital shaker to induce cell lysis. Survival was measured by luminescence on a microplate reader (TECAN) and normalized to no-treatment control.
To experimentally address this question, mouse embryo fibroblasts from wild-type and Neil1 knockout mice were treated with increasing concentrations of P2, P6, P7, and P8. Cell survival was measured after a 72 h exposure. For all four compounds, the 37% survival was greater in the Neil1 knockout cells relative to the wild-type. The D37 ratios for WT: Neil1 were as follows: P2: 6∶10 µM; P6: 5∶8 µM; P7: 12∶15 µM; and P8: 7∶11 µM, respectively. […] In addition to modulating BER, there are potentially many other candidate enzymes that may be compromised by the introduction of these compounds, including but not limited to kinases, DNA and RNA polymerases, other DNA repair complexes or helicases. However, given that the concentrations of these compounds are several orders of magnitude higher than what would be considered as a pharmacologically-relevant dose, detailed mechanistic analyses of the current set of compounds is highly premature. Such studies and the development of appropriate cell culture and animal models will need to be generated concomitantly with the evolution of higher affinity, greater specificity molecules.

NEIL1 = target: T2, NEIL1 (Homo sapiens, UniProt Q96FI4); assay: NEIL1 excision of FapyAde and FapyGua from γ-irradiated calf thymus DNA by GC-MS/MS; format: biochemical; details: 10 µL of 2 mM inhibitor in DMSO, 1 h 37°C
T2 construct: made in house
Method: The enzymatic activity of NEIL1 was measured using gas chromatography/isotope-dilution tandem mass spectrometry (GC-MS/MS) and calf thymus DNA samples γ-irradiated at 20 Gy as described, [30]. Aliquots of FapyAde-^13C,^15N2 and FapyGua-^13C,^15N2 were added as internal standards to 50 µg of DNA samples. After drying in a SpeedVac, DNA samples were dissolved in 50 µL of an incubation buffer consisting of 50 mM phosphate buffer (pH 7.4), 100 mM KCl, 1 mM EDTA, and 0.1 mM dithiothreitol, and then incubated with 2 µg NEIL1 for 1 h at 37°C without any inhibitor, DMSO alone, or with 10 µL of an inhibitor solution in DMSO (2 mM). After incubation, 150 µL of cold ethanol was added. The samples were kept at −20°C for 1 h and then centrifuged with 14,000 g for 30 min at 4°C. The supernatant fractions were separated and ethanol removed in a SpeedVac under vacuum. The samples were then frozen in liquid nitrogen and lyophilized overnight. To fully remove DMSO that would interfere with GC-MS/MS analysis, 500 µL water were added to the samples followed by lyophilization overnight. This procedure was repeated twice. Dried samples were derivatized and analyzed by GC-MS/MS as described, [30]. For each data point, three independently prepared samples were used.
Although Gh and Sp are excellent substrates for NEIL1, these are likely not to be the biologically relevant substrates. Thus, to determine if the compounds that were identified above were effective in the inhibition of NEIL1 against its biologically relevant substrates FapyAde and FapyGua, [6], γ-irradiated calf thymus DNA was used as a substrate. The excision by NEIL1 of these substrates from DNA was measured by GC-MS/MS with isotope-dilution. Figure 8 illustrates the excision of FapyAde and FapyGua by NEIL1 from γ-irradiated calf thymus DNA in the absence or presence of inhibitors. […] Some inhibition by DMSO alone was also observed when compared with excision by NEIL1 alone (p = 0.01). However, when compared to DMSO, the inhibitions by P2, P6, P7 and P8 were highly significant (p<0.005). […] A p-value<0.05 was assumed to correspond to statistical significance.

T2 sequence (Q96FI4 whole entry): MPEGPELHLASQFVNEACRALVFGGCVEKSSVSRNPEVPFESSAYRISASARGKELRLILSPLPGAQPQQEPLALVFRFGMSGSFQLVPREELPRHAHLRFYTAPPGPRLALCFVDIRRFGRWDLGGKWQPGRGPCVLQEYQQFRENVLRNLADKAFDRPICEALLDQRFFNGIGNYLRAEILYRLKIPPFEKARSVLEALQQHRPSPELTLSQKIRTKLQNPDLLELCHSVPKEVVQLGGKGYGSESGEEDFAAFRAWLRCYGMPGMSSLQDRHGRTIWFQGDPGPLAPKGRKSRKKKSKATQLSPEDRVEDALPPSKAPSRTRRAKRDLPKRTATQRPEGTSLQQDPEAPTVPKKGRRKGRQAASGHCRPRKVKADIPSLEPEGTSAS
T1 sequence (P04418 whole entry): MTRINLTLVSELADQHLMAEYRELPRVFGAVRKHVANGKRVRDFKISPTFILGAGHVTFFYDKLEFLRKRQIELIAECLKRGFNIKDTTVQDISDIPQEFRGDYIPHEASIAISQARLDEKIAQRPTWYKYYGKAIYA

Structure (SMILES) | inhibition at 40 µM [1] [%] | D37 (37% survival) (wild-type MEFs) [µM] | inhibition of NEIL1 excision of FapyAde and FapyGua (NEIL1)
Cc1cc(/C=C/C#N)cc(C)c1Nc1nc(Nc2ccc3c(c2)CCC3)c2nc[nH]c2n1 [Purine P7] | 13 | 12 | significantly reduced the activity of NEIL1
Cc1cc(/C=C/C#N)cc(C)c1Nc1nc(Nc2ccc3c(c2)OCO3)c2nc[nH]c2n1 [Purine P8] | 14 | 7 | significantly reduced the activity of NEIL1
Cc1nc2ccc(Nc3nc(Nc4c(C)cc(/C=C/C#N)cc4C)nc4[nH]cnc34)cc2s1 [Purine P6] | 32 | 5 | significantly reduced the activity of NEIL1
Cc1cc(/C=C/C#N)cc(C)c1Nc1nc(Nc2ccc3scnc3c2)c2nc[nH]c2n1 [Purine P2] | < 1 | 6 | significantly reduced the activity of NEIL1
